The term Ki denotes the equilibrium dissociation constant of an inhibitor or competing ligand from its target. Read a low Ki as tighter binding.

The target of this test is Protease (Human immunodeficiency virus 1, UniProt Q9YQ12). The experiment in a line: Inhibition of HIV1 protease.
Chain of Protease (Q9YQ12 whole entry): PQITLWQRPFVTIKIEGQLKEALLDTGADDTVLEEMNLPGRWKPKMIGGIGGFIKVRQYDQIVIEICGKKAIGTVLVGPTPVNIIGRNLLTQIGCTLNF
Compound `Cc1cccc(C)c1OCC(=O)N[C@@H](Cc1ccccc1)C(O)C[C@H](Cc1ccccc1)NC(=O)[C@@H]1CN(c2cccc(C(F)(F)F)c2)C(=O)O1` (stereo partly drawn) came in with a Ki of 21.6 nM.

`CC(=O)NC(C(=O)N[C@@H](Cc1ccccc1)CC(O)[C@H](Cc1ccccc1)NC(=O)[C@@H]1CN(c2ccc(F)c(F)c2)C(=O)O1)C(C)C` (stereo partly drawn) yielded an inhibition constant Ki of 2.13 nM.

`CC(=O)NC(C(=O)N[C@@H](Cc1ccccc1)CC(O)[C@H](Cc1ccccc1)NC(=O)[C@@H]1CN(c2cccc(C(F)(F)F)c2)C(=O)O1)C(C)C` (stereo partly drawn): the Ki turned out to be 2.62 nM.

With `COC(=O)NC(C(=O)N[C@@H](Cc1ccccc1)CC(O)[C@H](Cc1ccccc1)NC(=O)[C@@H]1CN(c2ccccc2)C(=O)O1)C(C)(C)C` (stereo partly drawn), the Ki is 3.51 nM.

In turn, `Cc1cccc(C)c1OCC(=O)N[C@@H](Cc1ccccc1)CC(O)[C@H](Cc1ccccc1)NC(=O)[C@@H]1CN(c2ccccc2)C(=O)O1` (stereo partly drawn) showed a Ki of 8.05 nM.

`CC(=O)c1cccc(N2C[C@@H](C(=O)N[C@@H](Cc3ccccc3)C(O)C[C@H](Cc3ccccc3)NC(=O)COc3c(C)cccc3C)OC2=O)c1` (stereo partly drawn): the affinity, expressed as Ki, was 35.1 nM.

As for `CC(=O)c1ccc(N2C[C@@H](C(=O)N[C@@H](Cc3ccccc3)C(O)C[C@H](Cc3ccccc3)NC(=O)COc3c(C)cccc3C)OC2=O)cc1` (stereo partly drawn), affinity was put at a Ki of 39.9 nM.

The compound `Cc1cccc(C)c1OCC(=O)N[C@@H](Cc1ccccc1)C(O)C[C@H](Cc1ccccc1)NC(=O)[C@@H]1CN(c2ccccc2)C(=O)O1` (stereo partly drawn) registered a Ki of 4730 nM.

Regarding `O=C(Cc1ccc2c(c1)OCO2)N[C@H](CC[C@H](Cc1ccccc1)NC(=O)[C@@H]1CN(c2ccccc2)C(=O)O1)Cc1ccccc1`, the affinity, expressed as Ki, was 657 nM.

The compound `O=C(N[C@@H](Cc1ccccc1)C(O)C[C@H](Cc1ccccc1)NC(=O)[C@@H]1CN(c2cccc(C(F)(F)F)c2)C(=O)O1)OCc1ccccn1` (stereo partly drawn) registered a Ki of 41.1 nM.

`COC(=O)NC(C(=O)NN(CC(C)C)CC(O)[C@H](Cc1ccccc1)NC(=O)[C@@H]1CN(c2ccccc2)C(=O)O1)C(C)(C)C` (stereo partly drawn) displayed a Ki of 7 nM.

On to `COC(=O)NC(C(=O)N[C@@H](Cc1ccccc1)C(O)CN(CC(C)C)NC(=O)C1CN(c2ccccc2)C(=O)O1)C(C)(C)C` (stereo partly drawn), for which the affinity corresponds to a Ki of 10.6 nM.

In turn, `CC(=O)c1cccc(N2CC(C(=O)NN(Cc3ccc(-c4ccccn4)cc3)CC(O)[C@H](Cc3ccccc3)NC(=O)[C@@H]3CN(c4cccc(C(C)=O)c4)C(=O)O3)OC2=O)c1` (stereo partly drawn) displayed a Ki of 1090 nM.
